One test concerns native tau aggregates. The experiment in a line: TAU radioligand in vitro displacement assay ([3H]T808, autoradiography on human AD brain sections). The test is classed as binding. The note with it: compound 10 nM, radioligand [3H]T808 10 nM. The method, boiled down: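 Displacement of 10 nM [3H]T808 from 10 μm human AD brain cryosections by test compounds at various concentrations, 30 min at room temperature in 50 mM Tris pH 7.4, then cold washes. Autoradiography after 5-day exposure; specific binding = ROI signal minus white-matter signal, expressed as % displacement.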
For the compound `FCCNc1ccn2cc(-c3ccc(N4CCOCC4)cc3)nc2c1` [Example 147, N-(2-Fluoroethyl)-2-(4-morpholin-4-ylphenyl)imidazo[1,2-a]pyridin-7-amine], the “% displacement of [3H]T808 (10 nM) at 10 nM” value (from here on “% displacement … at 10 nM”) turned out to be 23%.

As to `COc1ccc(-c2cn3ccc(NCCF)cc3n2)cc1` [Example 75, (2-Fluoro-ethyl)-[2-(4-methoxy-phenyl)-imidazo[1,2-a]pyridin-7-yl]-amine], the “% displacement … at 10 nM” value turned out to be 42%.

For the compound `CO[C@@H]1CCN(c2ccn3cc(-c4cccc(C)c4)nc3c2)C1` [Example 86, 7-((R)-3-Methoxy-pyrrolidin-1-yl)-2-m-tolyl-imidazo[1,2-a]pyridine], the “% displacement … at 10 nM” value was found to be 33%.

In the case of `CN(CCF)c1ccn2cc(-c3ccccc3)nc2c1` [Example 2, N-(2-Fluoroethyl)-N-methyl-2-phenylimidazo[1,2-a]pyridin-7-amine], the “% displacement … at 10 nM” value came to 50%.

On to `CNc1ccn2cc(-c3ccc(OC(F)F)cc3)nc2c1` [Example 113, N-[2-(4-Difluoromethoxy-phenyl)-imidazo[1,2-a]pyridin-7-yl]-methyl-amine], for which the “% displacement … at 10 nM” value is on record as 48%.

As to `CC(=O)O.CNc1ccn2cc(-c3ccc(N4CCCC4)cc3)nc2c1` [Example 94, Methyl-[2-(4-pyrrolidin-1-yl-phenyl)-imidazo[1,2-a]pyridin-7-yl]-amine acetic acid adduct], the “% displacement … at 10 nM” value was determined as 18%.

Turning to `COc1cccc(-c2cn3ccc(N4CCCC4)cc3n2)c1` [Example 9, 2-(3-Methoxy-phenyl)-7-pyrrolidin-1-yl-imidazo[1,2-a]pyridine], the “% displacement … at 10 nM” value is 33%.

As for `CNc1ccn2cc(-c3ccccc3O)nc2c1` [Example 120, 2-(7-Methylamino-imidazo[1,2-a]pyridin-2-yl)-phenol], the “% displacement … at 10 nM” value is 20%.

`CN(C)c1ccc(-c2cn3ccc(N(C)C)cc3n2)cc1` [Example 16, [2-(4-Dimethylamino-phenyl)-imidazo[1,2-a]pyridin-7-yl]-dimethyl-amine]: the “% displacement … at 10 nM” value is listed as 29%.

Take `FCCNc1ccn2cc(-c3ccc(OCF)cc3)nc2c1` [Example 50, (2-Fluoro-ethyl)-[2-(4-fluoromethoxy-phenyl)-imidazo[1,2-a]pyridin-7-yl]-amine]: the “% displacement … at 10 nM” value stood at 20%.

`Cc1ccc(-c2cn3ccc(NCCF)cc3n2)cc1` [Example 46, (2-Fluoro-ethyl)-(2-p-tolyl-imidazo[1,2-a]pyridin-7-yl)-amine]: the “% displacement … at 10 nM” value is 27%.

`CNc1ccn2cc(-c3ccc(OC)c(OC)c3)nc2c1` [Example 66, [2-(3,4-Dimethoxy-phenyl)-imidazo[1,2-a]pyridin-7-yl]-methyl-amine]: the “% displacement … at 10 nM” value turned out to be 40%.

As for `FCCNc1ccn2cc(-c3ccc4c(c3)OCCO4)nc2c1` [Example 143, 2-(2,3-dihydrobenzo[b][1,4]dioxin-6-yl)-N-(2-fluoroethyl)imidazo[1,2-a]pyridin-7-amine], the “% displacement … at 10 nM” value is 23%.

As for `CNc1ccn2cc(-c3ccc(SC)cc3)nc2c1` [Example 71, Methyl-[2-(4-methylsulfanyl-phenyl)-imidazo[1,2-a]pyridin-7-yl]-amine], the “% displacement … at 10 nM” value was 34%.

`CNc1ccn2cc(-c3ccc(N4CCCCC4)cc3)nc2c1` [Example 118, Methyl-[2-(4-piperidin-1-yl-phenyl)-imidazo[1,2-a]pyridin-7-yl]-amine]: the “% displacement … at 10 nM” value is given as 20%.

In the case of `COc1cccc(-c2cn3ccc(N4CCC(F)CC4)cc3n2)c1` [Example 60, 7-(4-Fluoro-piperidin-1-yl)-2-(3-methoxy-phenyl)-imidazo[1,2-a]pyridine], the “% displacement … at 10 nM” value is reported as 14%.

Turning to `CN(CCF)c1ccn2cc(-c3ccc4c(c3)OCCO4)nc2c1` [Example 23, [2-(2,3-Dihydro-benzo[1,4]dioxin-6-yl)-imidazo[1,2-a]pyridin-7-yl]-(2-fluoro-ethyl)-methyl-amine], the “% displacement … at 10 nM” value is on record as 27%.

Staying with this test, now noted: compound 1 uM, radioligand [3H]T808 10 nM.
Turning to `CN(CCF)c1ccn2cc(-c3ccccc3)nc2c1` [Example 2, N-(2-Fluoroethyl)-N-methyl-2-phenylimidazo[1,2-a]pyridin-7-amine], the “% displacement of [3H]T808 (10 nM) at 1 uM” value amounted to 90%.

Another test concerns tau aggregates. The experiment in a line: Autoradiography of tritiated radioligands on human cortical brain sections (Braak V AD patient). Format: binding. The following applies: radioligand 1.8 (ex. 62), 2.8 (ex. 64), 3.7 (ex. 61), 2.7 nM (ex. 63). As for the experimental part:
The radioligand concentrations were 1.8, 2.8, 3.7 and 2.7 nM, respectively.
Consider `[3H]CNc1ccn2cc(-c3ccc(OCF)cc3)nc2c1` [Example 61, [^3H]-[2-(4-Fluoromethoxy-phenyl)-imidazo[1,2-a]pyridin-7-yl]-methyl-amine], for which the autoradiogram staining pattern result is on record as “punctate staining of tau aggregates in a layered distribution pattern”.

Values taken from US11358962B2, “2-hetaryl imidazol[1,2-a]pyridine derivatives” (Hoffmann-La Roche Inc., priority 2013, dated 2022).
